Results: patent US20100298141A1, “SUBSTITUTED PYRIDINE N-OXIDE HERBICIDES” (E. I. DU PONT DE NEMOURS AND COMPANY, priority 2007, published 2010)

Columns and labels:
blackgrass = test: Test C pre-/postemergence test; format: in vivo, Alopecurus myosuroides; details: Postemergence; for Plant response rating, Blackgrass: scale 0 to 100, 0 no effect, 100 complete control
Description: (§1) Seeds of plant species selected from blackgrass (Alopecurus myosuroides), downy brome (Bromus tectorum), green foxtail (Setaria viridis), Italian ryegrass (Lolium multiflorum), wheat (Triticum aestivum), wild oat (Avena fatua), catchweed bedstraw (Galium aparine), Russian thistle (Salsola kali), […] (Cynodon dactylon), Surinam grass (Brachiaria decumbens), cocklebur (Xanthium strumarium), corn (Zea mays), crabgrass (Digitaria sanguinalis), woolly cupgrass (Eriochloa villosa), giant foxtail (Setaria faberii), Goosegrass (Eleusin indica), johnsongrass (Sorghum halepense), kochia (Kochia scoparia), lambsquarters (Chenopodium album), morningglory (Ipomoea coccinea), eastern black nightshade (Solanum ptycanthum), yellow nutsedge (Cyperus esculentus), pigweed (Amaranthus retroflexus), common ragweed (Ambrosia elation), soybean (Glycine max), common (oilseed) sunflower (Helianthus annuus), and velvetleaf (Abutilon theophrasti) were planted and treated preemergence with test chemicals formulated in a non-phytotoxic solvent mixture which included a surfactant. At the same time, plants selected from these crop and weed species and also winter barley (Hordeum vulgare), canarygrass (Phalaris minor), and chickweed (Stellaria media) were treated with postemergence applications of some of the test chemicals formulated in the same manner. Plants ranged in height from 2 to 18 cm (1- to 4-leaf stage) for postemergence treatments. […] At time of treatment, test pots were flooded to 3 cm above the soil surface, treated by application of test compounds directly to the paddy water, and then maintained at that water depth for the duration of the test. […] A dash (-) response means no test result.

duck salad = test: Test C flooded paddy test; format: in vivo, Heteranthera limosa; details: Flood
In short: (§2)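 Greenhouse pots flooded to 3 cm above soil at time of treatment received compound via the water, which stayed at that level.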

crabgrass = test: Test A pre-/postemergence greenhouse test; format: in vivo, Digitaria sanguinalis; details: for Plant response rating, Crabgrass, Large: 0 to 100 scale where 0 is no effect and 100 is complete control; for Crabgrass, Large plant response rating: 0 to 100 scale
In short: (§3)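 Pots of loam–sand soil sown with the test species are sprayed preemergence on the soil surface; emerged seedlings (1–2 leaves, 2–10 cm) are sprayed postemergence at the same time. The vehicle is a non-phytotoxic solvent mixture with surfactant. Injury is scored visually after ~10 d in greenhouse.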

common ragweed = test: Test C pre-/postemergence test; format: in vivo, Ambrosia elation; details: Postemergence; for Plant response rating, Ragweed: scale 0 to 100, 0 no effect, 100 complete control
Description: as §1

corn = test: Test C pre-/postemergence test; format: in vivo, Zea mays; details: Postemergence; for Plant response rating, Corn: scale 0 to 100, 0 no effect, 100 complete control
Description: as §1

green foxtail = test: Test C pre-/postemergence test; format: in vivo, Setaria viridis; details: Postemergence; for Plant response rating, Foxtail, Green: scale 0 to 100, 0 no effect, 100 complete control
Description: as §1

yellow nutsedge = test: Test C pre-/postemergence test; format: in vivo, Cyperus esculentus; details: Postemergence; for Plant response rating, Nutsedge, Yellow: scale 0 to 100, 0 no effect, 100 complete control
Description: as §1

Italian ryegrass = test: Test C pre-/postemergence test; format: in vivo, Lolium multiflorum; details: Postemergence; for Plant response rating, Ryegrass, Italian: scale 0 to 100, 0 no effect, 100 complete control
Description: as §1

wheat = test: Test C pre-/postemergence test; format: in vivo, Triticum aestivum; details: Postemergence; for Plant response rating, Wheat: scale 0 to 100, 0 no effect, 100 complete control
Description: as §1

woolly cupgrass = test: Test C pre-/postemergence test; format: in vivo, Eriochloa villosa; details: Postemergence; for Plant response rating, Cupgrass, Woolly: scale 0 to 100, 0 no effect, 100 complete control
Description: as §1

umbrella sedge = test: Test C flooded paddy test; format: in vivo, Cyperus difformis; details: Flood
In short: as §2

wild oat = test: Test C pre-/postemergence test; format: in vivo, Avena fatua; details: Postemergence; for Plant response rating, Oat, Wild: scale 0 to 100, 0 no effect, 100 complete control
Description: as §1

redroot pigweed = test: Test A pre-/postemergence greenhouse test; format: in vivo, Amaranthus retroflexus; details: for Plant response rating, Pigweed: 0 to 100 scale where 0 is no effect and 100 is complete control; for Pigweed plant response rating: 0 to 100 scale
In short: as §3

morningglory = test: Test A pre-/postemergence greenhouse test; format: in vivo, Ipomoea spp.; details: for Plant response rating, Morningglory: 0 to 100 scale where 0 is no effect and 100 is complete control; for Morningglory plant response rating: 0 to 100 scale
In short: as §3

Goosegrass = test: Test C pre-/postemergence test; format: in vivo, Eleusin indica; details: Postemergence; for Plant response rating, Goosegrass: scale 0 to 100, 0 no effect, 100 complete control
Description: as §1

[1] = 62 g ai/ha, scale 0 to 100 (0 no effect, 100 complete control)
[2] = 250 g ai/ha, scale 0 to 100, 0 no effect, 100 complete control, 13 to 15 days
[3] = Postemergence, 500 g ai/ha, 0 is no effect, 100 is complete control
[4] = Preemergence, 125 g ai/ha, 0 no effect, 100 complete control

Compound: CCn1nc(C(F)(F)F)c(C(C)S(=O)(=O)c2cccc[n+]2[O-])c1OCC(F)(F)F (centres unmarked) [Compound 69]
- Plant response rating (0 to 100), Blackgrass (blackgrass; 31 g ai/ha): 0
- Plant response rating, Blackgrass (blackgrass; 62 g ai/ha): 0
- Plant response rating, Blackgrass (blackgrass; 125 g ai/ha): 85
- Plant response rating, Blackgrass (blackgrass; 250 g ai/ha): 95
- Plant response rating, Ducksalad (duck salad; [1]): 70
- Plant response rating, Ducksalad (duck salad; [2]): 100
- Plant response rating, Crabgrass, Large (crabgrass; Postemergence, 125 g ai/ha): 80
- Crabgrass, Large plant response rating (crabgrass; [3]): 90
- Crabgrass, Large plant response rating (crabgrass; [4]): 40
- Plant response rating, Crabgrass, Large (crabgrass; Preemergence, 500 g ai/ha): 100
- Plant response rating (0 to 100), Ragweed (common ragweed; 31 g ai/ha): 0
- Plant response rating (0 to 100), Ragweed (common ragweed; 62 g ai/ha): 0
- Plant response rating, Ragweed (common ragweed; 125 g ai/ha): 0
- Plant response rating, Ragweed (common ragweed; 250 g ai/ha): 0
- Plant response rating (0 to 100), Corn (corn; 31 g ai/ha): 0
- Plant response rating, Corn (corn; 62 g ai/ha): 0
- Plant response rating, Corn (corn; 125 g ai/ha): 0
- Plant response rating, Corn (corn; 250 g ai/ha): 0
- Plant response rating (0 to 100), Foxtail, Green (green foxtail; 31 g ai/ha): 0
- Plant response rating, Foxtail, Green (green foxtail; 62 g ai/ha): 0
- Plant response rating, Foxtail, Green (green foxtail; 125 g ai/ha): 30
- Plant response rating, Foxtail, Green (green foxtail; 250 g ai/ha): 90
- Plant response rating (0 to 100), Nutsedge, Yellow (yellow nutsedge; 31 g ai/ha): 0
- Plant response rating, Nutsedge, Yellow (yellow nutsedge; 62 g ai/ha): 0
- Plant response rating, Nutsedge, Yellow (yellow nutsedge; 125 g ai/ha): 0
- Plant response rating, Nutsedge, Yellow (yellow nutsedge; 250 g ai/ha): 0
- Plant response rating (0 to 100), Ryegrass, Italian (Italian ryegrass; 31 g ai/ha): 0
- Plant response rating (0 to 100), Ryegrass, Italian (Italian ryegrass; 62 g ai/ha): 40
- Plant response rating, Ryegrass, Italian (Italian ryegrass; 125 g ai/ha): 50
- Plant response rating, Ryegrass, Italian (Italian ryegrass; 250 g ai/ha): 95
- Plant response rating (0 to 100), Wheat (wheat; 31 g ai/ha): 0
- Plant response rating (0 to 100), Wheat (wheat; 62 g ai/ha): 0
- Plant response rating, Wheat (wheat; 125 g ai/ha): 20
- Plant response rating, Wheat (wheat; 250 g ai/ha): 50
- Plant response rating (0 to 100), Cupgrass, Woolly (woolly cupgrass; 31 g ai/ha): 0
- Plant response rating, Cupgrass, Woolly (woolly cupgrass; 62 g ai/ha): 0
- Plant response rating, Cupgrass, Woolly (woolly cupgrass; 125 g ai/ha): 0
- Plant response rating, Cupgrass, Woolly (woolly cupgrass; 250 g ai/ha): 0
- Plant response rating, Sedge, Umbrella (umbrella sedge; [1]): 100
- Plant response rating, Sedge, Umbrella (umbrella sedge; [2]): 100
- Plant response rating (0 to 100), Oat, Wild (wild oat; 31 g ai/ha): 0
- Plant response rating, Oat, Wild (wild oat; 62 g ai/ha): 0
- Plant response rating, Oat, Wild (wild oat; 125 g ai/ha): 0
- Plant response rating, Oat, Wild (wild oat; 250 g ai/ha): 90
- Plant response rating, Pigweed (redroot pigweed; Postemergence, 125 g ai/ha): 30
- Pigweed plant response rating (redroot pigweed; [3]): 90
- Pigweed plant response rating (redroot pigweed; [4]): 70
- Plant response rating, Pigweed (redroot pigweed; Preemergence, 500 g ai/ha): 100
- Plant response rating, Morningglory (morningglory; Postemergence, 125 g ai/ha): 40
- Morningglory plant response rating (morningglory; [3]): 70
- Morningglory plant response rating (morningglory; [4]): 50
- Plant response rating, Morningglory (morningglory; Preemergence, 500 g ai/ha): 100
- Plant response rating (0 to 100), Goosegrass (Goosegrass; 31 g ai/ha): 0
- Plant response rating, Goosegrass (Goosegrass; 62 g ai/ha): 0
- Plant response rating, Goosegrass (Goosegrass; 125 g ai/ha): 0
- Plant response rating, Goosegrass (Goosegrass; 250 g ai/ha): 40
